Measurements published in ChEMBL document CHEMBL1201862, “PubChem BioAssay data set” (2004).
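Step 1: Grow cells in 96-well plates. Step 2: Expose to compound for 48 hours at 5 concentrations. Step 3: Interpolate endpoints linearly; if unreached, use highest concentration. GI50 marks 50% less growth.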 Activity calls are given as the source filed them. No stated cut-off is given here; in the data, active = GI50 up to about 1.1 µM and inactive = higher.

Experiments:
Assay in all cases: DTP human tumour cell line panel, 48 h
SK-MEL-2 = system: SK-MEL-2
SK-MEL-28 = system: SK-MEL-28
OVCAR-3 = system: OVCAR-3
U-251 = system: U-251
M14 = system: M14
SNB-19 = system: SNB-19
SR = system: SR
ACHN = system: ACHN
SNB-75 = system: SNB-75
UACC-257 = system: UACC-257
COLO 205 = system: COLO 205
EKVX = system: EKVX
MOLT-4 = system: MOLT-4
SK-OV-3 = system: SK-OV-3
HOP-92 = system: HOP-92
Malme-3M = system: Malme-3M
RXF 393 = system: RXF 393
NCI/ADR-RES = system: NCI/ADR-RES
MDA-N = system: MDA-N

SMILES | GI50 (SK-MEL-2) | GI50 (SK-MEL-28) | GI50 (OVCAR-3) | GI50 (U-251) | GI50 (M14) | GI50 (SNB-19) | GI50 (SR) | GI50 (ACHN) | GI50 (SNB-75) | GI50 (UACC-257) | GI50 (COLO 205) | GI50 (EKVX) | GI50 (MOLT-4) | GI50 (SK-OV-3) | GI50 (HOP-92) | GI50 (Malme-3M) | GI50 (RXF 393) | GI50 (NCI/ADR-RES) | GI50 (MDA-N)
COc1ccccc1-n1c(C)nc2ccccc2c1=O | > 100 µM (inactive) | > 100 µM (inactive) | > 100 µM (inactive) | > 100 µM (inactive) | > 100 µM (inactive) | > 100 µM (inactive) | > 100 µM (inactive) | > 100 µM (inactive) | > 100 µM (inactive) | > 100 µM (inactive) | > 100 µM (inactive) | > 100 µM (inactive) | > 100 µM (inactive) | > 100 µM (inactive) | > 100 µM (inactive) | > 100 µM (inactive) | > 100 µM (inactive) | – | –
Cc1cc(O)nc(NNC(C#N)c2cccc([N+](=O)[O-])c2)n1 (stereo unspecified) | > 100 µM (inactive) | > 100 µM (inactive) | > 100 µM (inactive) | > 100 µM (inactive) | > 100 µM (inactive) | – | 74 µM (inactive) | > 100 µM (inactive) | 65.3 µM (inactive) | > 100 µM (inactive) | > 100 µM (inactive) | – | > 100 µM (inactive) | > 100 µM (inactive) | > 100 µM (inactive) | > 100 µM (inactive) | > 100 µM (inactive) | – | –
CC(C)(c1ccc(Oc2ccc(C#N)c(C#N)c2)cc1)c1ccc(Oc2ccc(C#N)c(C#N)c2)cc1 | > 10 µM (inactive) | > 10 µM (inactive) | > 10 µM (inactive) | > 10 µM (inactive) | > 10 µM (inactive) | > 10 µM (inactive) | > 10 µM (inactive) | > 10 µM (inactive) | 1.78 µM (inactive) | > 10 µM (inactive) | > 10 µM (inactive) | > 10 µM (inactive) | > 10 µM (inactive) | > 10 µM (inactive) | > 10 µM (inactive) | > 10 µM (inactive) | > 10 µM (inactive) | – | –
C=CC/N=C1\N=C(C)C(C(=O)OCC)S1 (stereo unspecified) | > 100 µM (inactive) | > 100 µM (inactive) | > 100 µM (inactive) | > 100 µM (inactive) | > 100 µM (inactive) | > 100 µM (inactive) | > 100 µM (inactive) | > 100 µM (inactive) | > 100 µM (inactive) | > 100 µM (inactive) | > 100 µM (inactive) | > 100 µM (inactive) | > 100 µM (inactive) | > 100 µM (inactive) | > 100 µM (inactive) | > 100 µM (inactive) | > 100 µM (inactive) | – | –
C[Si]1(C)C(c2ccccc2)=CC2C(c3ccccc3)(c3ccccc3)OC21c1ccccc1 (stereo unspecified) | > 100 µM (inactive) | > 100 µM (inactive) | > 100 µM (inactive) | > 100 µM (inactive) | 43.8 µM (inactive) | > 100 µM (inactive) | 29.4 µM (inactive) | > 100 µM (inactive) | > 100 µM (inactive) | > 100 µM (inactive) | > 100 µM (inactive) | > 100 µM (inactive) | 58.1 µM (inactive) | > 100 µM (inactive) | 48.5 µM (inactive) | 33.6 µM (inactive) | 47.5 µM (inactive) | – | –
CC/C(CC(=O)CCC(=O)Nc1ccccc1[N+](=O)[O-])=N/NC(=O)C[n+]1ccccc1 | > 100 µM (inactive) | > 100 µM (inactive) | > 100 µM (inactive) | > 100 µM (inactive) | > 100 µM (inactive) | > 100 µM (inactive) | > 100 µM (inactive) | > 100 µM (inactive) | > 100 µM (inactive) | > 100 µM (inactive) | > 100 µM (inactive) | > 100 µM (inactive) | > 100 µM (inactive) | > 100 µM (inactive) | > 100 µM (inactive) | > 100 µM (inactive) | > 100 µM (inactive) | – | –
CON(C)C(=O)C(C)NC(=O)OCc1ccccc1 (stereo unspecified) | – | > 100 µM (inactive) | > 100 µM (inactive) | > 100 µM (inactive) | > 100 µM (inactive) | > 100 µM (inactive) | > 100 µM (inactive) | > 100 µM (inactive) | > 100 µM (inactive) | > 100 µM (inactive) | – | > 100 µM (inactive) | > 100 µM (inactive) | > 100 µM (inactive) | > 100 µM (inactive) | > 100 µM (inactive) | > 100 µM (inactive) | > 100 µM (inactive) | > 100 µM (inactive)
COc1ccc2nc3ccccc3c(NCCCCCCN(CCCl)CCCl)c2c1 | 0.297 µM (active) | 1.06 µM (active) | 0.0627 µM (active) | 0.0528 µM (active) | 0.0946 µM (active) | 0.328 µM (active) | 0.0115 µM (active) | 0.0184 µM (active) | 0.108 µM (active) | 1.6 µM (inactive) | 0.014 µM (active) | 0.895 µM (active) | 0.0124 µM (active) | 0.226 µM (active) | 0.124 µM (active) | 0.537 µM (active) | 0.187 µM (active) | 0.0883 µM (active) | 0.057 µM (active)
